In assay [1] the target is Protein cereblon/Dual specificity tyrosine-phosphorylation-regulated kinase 1B (Homo sapiens, UniProt Q96SW2+Q9Y463). The assay is described as follows: Competitive binding affinity to CRBN/DYRK1B (unknown origin) assessed as dissociation constant. The format is protein assay.
For assay [2], the target named is Protein cereblon/Dual specificity tyrosine-phosphorylation-regulated kinase 1B (Homo sapiens) (UniProt Q9Y463+Q96SW2). The assay is described as follows: PROTAC activity at CRBN/HibiT-tagged DYRK1B in Flp-In-T-REx-293 cells assessed as induction of degradation of DYRK1B by measuring maximum efficacy at 0.3 uM measured after 24 hrs by NanoBiT luciferase assay relative to control. It is filed as cell-based.

The target of assay [3] is T1, Protein cereblon/Dual specificity tyrosine-phosphorylation-regulated kinase 1A (Homo sapiens, UniProt Q13627+Q96SW2). The assay is described as follows: PROTAC activity at CRBN/HibiT-tagged DYRK1A in Flp-In-T-REx-293 cells assessed as induction of degradation of DYRK1A by measuring maximum efficacy at 0.3 uM measured after 24 hrs by NanoBiT luciferase assay relative to control. It is filed as cell-based.

Assay [4] addresses T1, Protein cereblon/Dual specificity tyrosine-phosphorylation-regulated kinase 1A. The assay is described as follows: Competitive binding affinity to CRBN/DYRK1A (unknown origin) assessed as dissociation constant. The format is protein assay.
For assay [5] the target is unchanged. The assay is described as follows: PROTAC activity at CRBN/HibiT-tagged DYRK1A in Flp-In-T-REx-293 cells assessed as induction of degradation of DYRK1A at 100 nM by measured after 24 hrs by NanoBiT luciferase assay. The format is cell-based.
Assay [6] has the same target. The assay is described as follows: PROTAC activity at CRBN/DYRK1A in HEK293 cells expressing GFP-SF3B1 assessed as inhibition of SF3B1 phosphorylation at 10 to 100 nM measured for 24 hrs by Western blot analysis. The format is cell-based. The note with it: dose 10-100 nM. (A western blot detects proteins with antibodies after separation by electrophoresis.)
The target is the same in assay [7]. The assay is described as follows: PROTAC activity at CRBN/HibiT-tagged DYRK1A in Flp-In-T-REx-293 cells assessed as induction of degradation of DYRK1A at 1 uM by measured after 24 hrs by NanoBiT luciferase assay. It is filed as cell-based.
Assay [8] concerns the target Protein cereblon/DNA damage-binding protein 1 (Homo sapiens, UniProt Q96SW2). The assay is described as follows: Displacement of Cy5-tagged thalidomide-like probe from recombinant CRBN/DDB1 (unknown origin) by competitive binding assay. The format is protein assay.
The target of assay [9] is von Hippel-Lindau disease tumor suppressor/Dual specificity tyrosine-phosphorylation-regulated kinase 1A (Homo sapiens) (UniProt Q13627+P40337). The assay is described as follows: PROTAC activity at VHL/HibiT-tagged DYRK1A in Flp-In-T-REx-293 cells assessed as induction of degradation of DYRK1A by measuring maximum efficacy at 0.3 uM measured after 24 hrs by NanoBiT luciferase assay relative to control. The format is cell-based.

Assay [10] deals with von Hippel-Lindau disease tumor suppressor/Dual specificity tyrosine-phosphorylation-regulated kinase 1A (Homo sapiens, UniProt P40337+Q13627). The assay is described as follows: Competitive binding affinity to VHL/DYRK1A (unknown origin) assessed as dissociation constant by competition binding assay. It is filed as protein assay.
Assay [11] addresses von Hippel-Lindau disease tumor suppressor/Dual specificity tyrosine-phosphorylation-regulated kinase 1B (Homo sapiens, UniProt P40337+Q9Y463). The assay is described as follows: Competitive binding affinity to VHL/DYRK1B (unknown origin) assessed as dissociation constant. The format is protein assay.
The target in assay [12] is von Hippel-Lindau disease tumor suppressor/Dual specificity tyrosine-phosphorylation-regulated kinase 1B (Homo sapiens) (UniProt Q9Y463+P40337). The assay is described as follows: PROTAC activity at VHL/HibiT-tagged DYRK1B in Flp-In-T-REx-293 cells assessed as induction of degradation of DYRK1B by measuring maximum efficacy at 0.3 uM measured after 24 hrs by NanoBiT luciferase assay relative to control. It is filed as cell-based.

The target of assay [13] is Dual specificity protein kinase CLK1 (Homo sapiens) (UniProt P49759). The assay is described as follows: Binding affinity to human wild type full length CLK1 (M1 to I484 residues) expressed in Bacterial expression system at 1 uM by kinome scan assay relative to control.
Assay [14] deals with Casein kinase I isoform epsilon (Homo sapiens) (UniProt P49674). The assay is described as follows: Binding affinity to human wild type full length CSNK1E (M1 to K416 residues) expressed in Bacterial expression system at 1 uM by kinome scan assay relative to control.
The target in assay [15] is Homeodomain-interacting protein kinase 2 (Homo sapiens) (UniProt Q9H2X6). The assay is described as follows: Binding affinity to human wild type partial length HIPK2 (M153 to S564 residues) expressed in mammalian expression system at 1 uM by kinome scan assay relative to control.
Assay [16] addresses Homeodomain-interacting protein kinase 3 (Homo sapiens) (UniProt Q9H422). The assay is described as follows: Binding affinity to human wild type full length HIPK3 (M1 to L344 residues) expressed in mammalian expression system at 1 uM by kinome scan assay relative to control.
The target of assay [17] is T2, Dual specificity tyrosine-phosphorylation-regulated kinase 1A (Homo sapiens, UniProt Q13627). The assay is described as follows: Binding affinity to DYRK1A (unknown origin) assessed as dissociation constant.
Assay [18] deals with T3, Serine/threonine-protein kinase haspin (Homo sapiens) (UniProt Q8TF76).
T3 sequence (whole entry): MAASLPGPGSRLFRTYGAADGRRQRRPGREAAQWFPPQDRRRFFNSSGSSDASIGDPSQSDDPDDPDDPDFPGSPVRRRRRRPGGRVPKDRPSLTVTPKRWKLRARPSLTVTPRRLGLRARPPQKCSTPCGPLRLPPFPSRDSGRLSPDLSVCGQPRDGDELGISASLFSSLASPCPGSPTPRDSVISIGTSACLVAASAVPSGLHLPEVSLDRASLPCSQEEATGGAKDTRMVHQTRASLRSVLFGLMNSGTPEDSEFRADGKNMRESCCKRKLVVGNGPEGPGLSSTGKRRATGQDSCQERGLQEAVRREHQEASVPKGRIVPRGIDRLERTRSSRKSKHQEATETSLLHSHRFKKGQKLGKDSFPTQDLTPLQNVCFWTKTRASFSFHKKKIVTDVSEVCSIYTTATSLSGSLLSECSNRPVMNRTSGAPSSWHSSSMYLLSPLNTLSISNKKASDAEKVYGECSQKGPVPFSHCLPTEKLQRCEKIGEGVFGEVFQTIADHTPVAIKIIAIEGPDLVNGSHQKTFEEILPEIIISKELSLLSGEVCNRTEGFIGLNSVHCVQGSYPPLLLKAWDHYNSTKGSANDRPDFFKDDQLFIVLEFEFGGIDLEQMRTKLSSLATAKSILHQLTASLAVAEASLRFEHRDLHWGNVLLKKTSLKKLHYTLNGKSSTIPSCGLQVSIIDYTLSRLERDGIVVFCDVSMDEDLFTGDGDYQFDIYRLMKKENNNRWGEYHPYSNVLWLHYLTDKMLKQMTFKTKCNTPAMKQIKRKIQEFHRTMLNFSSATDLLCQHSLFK
The assay is described as follows: Binding affinity to human wild type partial length Haspin (I452 to K798 residues) expressed in mammalian expression system at 1 uM by kinome scan assay relative to control.

The target in assay [19] is T2, Dual specificity tyrosine-phosphorylation-regulated kinase 1A. The assay is described as follows: Binding affinity to human wild type partial length DYRK1A (H129 to S509 residues) expressed in mammalian expression system at 1 uM by kinome scan assay relative to control.
For assay [20], the target named is Homeodomain-interacting protein kinase 3 (Homo sapiens) (UniProt Q9H422). The assay is described as follows: Binding affinity to human wild type partial length HIPK3 (M153 to N562 residues) expressed in mammalian expression system at 1 uM by kinome scan assay relative to control.

Active and inactive are the calls of the source. The rule behind the calls is not given here.

Regarding `Cc1nc2ccc(-c3ccnc(N)c3)nc2n1-c1ccc(N2CCN(CCOCCOCCOCCNc3cccc4c3C(=O)N(C3CCC(=O)NC3=O)C4=O)CC2)c(F)c1` (stereo not drawn), the Kd was 3.4 nM in assay [1] and 2.3 nM in assay [4]. Also, the Emax was 28% in assay [2] and 60% in [3].

As to `Cc1nc2ccc(-c3ccnc(N)c3)nc2n1-c1ccc(N2CCN(CCOCCNc3cccc4c3C(=O)N(C3CCC(=O)NC3=O)C4=O)CC2)c(F)c1` (stereo not drawn), the Kd in assay [1] came out at 2.4 nM; in [4], 1.4 nM. Besides, the Emax in [2] is 0%; in assay [3] it was 40%.

Regarding `Cc1nc2ccc(-c3ccnc(N)c3)nc2n1-c1ccc(N2CCN(CCOCCOCCNc3cccc4c3C(=O)N(C3CCC(=O)NC3=O)C4=O)CC2)c(F)c1` (stereo not drawn), the figures for the Kd in assay [1] and in assay [4] were 3.5 nM and 1.4 nM, respectively. Besides, the figures for the Emax in assay [2] and in assay [3] were 25% and 52%, respectively.

For the compound `Cc1nc2ccc(-c3ccnc(N)c3)nc2n1-c1ccc(N2CCN(CC#Cc3ccc(N4CCC(C(=O)N5CCC(n6cc(CNc7cccc8c7C(=O)N(C7CCC(=O)N(C)C7=O)C8=O)cn6)CC5)CC4)nc3)CC2)c(F)c1` (stereo not drawn), the outcome in [5] was inactive. Moreover, the Activity entry is recorded as “Active; Compound Partially Suppress The Phosphorylation” in [6] and “Active; Compound Showed Modest Degradation” in assay [7].

As to `O=C1CCC(N2C(=O)c3cccc(NCc4cnn(C5CCN(C(=O)C6CCN(c7ccccn7)CC6)CC5)c4)c3C2=O)C(=O)N1` (stereo not drawn), in assay [8], the IC50 is 13300 nM.

Consider `Cc1ncsc1-c1ccc(CNC(=O)[C@@H]2C[C@@H](O)CN2C(=O)[C@@H](NC(=O)CCOCCOCCOCCN2CCN(c3ccc(-n4c(C)nc5ccc(-c6ccnc(N)c6)nc54)cc3F)CC2)C(C)(C)C)cc1`, for which the maximum response (Emax) in [9] and in [12] was 0% throughout. For the same compound, the figures for the Kd in [10] and in assay [11] were 1.3 nM and 3.6 nM, respectively.

Turning to `Cc1nc2ccc(-c3ccnc(N)c3)nc2n1-c1ccc(N2CCN(C)CC2)cc1F`, the Activity in assay [13] turned out to be 0.5%; in assay [14], 0.3%; in assay [15], 0.3%; in [16], 0.7%; in assay [18], 0.2%; in [19] it was 0%. In [20], this compound had an Activity of 0.7%. Besides, in assay [17], the Kd was determined as 0.91 nM.

The Kd is the free concentration of one partner at which half of the binding sites on the other are occupied at equilibrium, for simple one-to-one binding. The Emax is the size of the effect at its maximum, as opposed to the concentration needed. A word on the IC50: it is the concentration that gives 50% inhibition.

The values above are taken from ChEMBL document CHEMBL6120970, “Discovery and Functional Characterization of a Potent, Selective, and Metabolically Stable PROTAC of the Protein Kinases DYRK1A and DYRK1B” (J Med Chem, 2024).
